Columns and labels:
[1] = molecular target: T1, APOL1 G2 (Homo sapiens, UniProt O14791, DEL388-389); test: Rescue of HEK293 cell death caused by overexpression of APOL1 (CellTiter-Glo luminescence), HEK293/T-REx APOL1 G2/clone #2; type: cell-based; details: reversal of cell death caused by overexpression of APOL1; geometric mean of at least 2 assay runs, † = single assay run (technical duplicate)
T1 construct: expressed in transfected cells; host or cells: HEK293 T-REx clonal lines: HEK T-REx/GCaMP6f/APOL1 G2 K6.3 in A1, HEK293/T-REx APOL1 G2/clone #2 in A2
T1 sequence (O14791 with tags, fused parts or gaps DEL388-389): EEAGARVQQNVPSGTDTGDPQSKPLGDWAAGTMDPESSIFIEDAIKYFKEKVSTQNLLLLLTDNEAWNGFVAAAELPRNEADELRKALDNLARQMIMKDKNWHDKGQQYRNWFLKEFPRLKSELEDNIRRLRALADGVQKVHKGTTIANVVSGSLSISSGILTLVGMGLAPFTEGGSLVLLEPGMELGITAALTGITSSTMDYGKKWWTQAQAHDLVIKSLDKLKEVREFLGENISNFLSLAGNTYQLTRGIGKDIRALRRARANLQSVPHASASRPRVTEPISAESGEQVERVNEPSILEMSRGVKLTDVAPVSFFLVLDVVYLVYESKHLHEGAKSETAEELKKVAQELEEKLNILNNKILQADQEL
Summary of the method: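 Rescue EC50s come from four-parameter logistic fits, geometric mean of at least 2 runs on separate days, each in duplicate. Readout: CellTiter-Glo luminescence after 17 h at 37 °C of 5,000 HEK293/T-REx APOL1 G2 clone #2 cells/well, with 6 ng/mL doxycycline to induce APOL1 and 3-fold serial compound dilutions in 0.5% DMSO.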

[2] = molecular target: T1, APOL1 G2; test: APOL1 calcium transport inhibition assay (GCaMP6f calcium influx, FLIPR) in HEK T-REx/GCaMP6f/APOL1 G2 K6.3 cells; type: cell-based; details: inhibition of APOL1-mediated calcium influx; geometric mean of at least 2 assay runs, † = single assay run (technical duplicate)
Summary of the method: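 HEK293 cells stably expressing GCaMP6f, APOL1 G2 induced 6 h with doxycycline (20 ng/mL added), then washed into Ca2+-free Tyrode's buffer pH 7.4. Compounds (8-point dose response) preincubated 10 min at room temperature, then Ca2+ injected to 5 mM final and influx read on FLIPR. AC50 reported as geometric mean of runs.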

SMILES | AC50 [2] | EC50 [1]
CS(=O)(=O)c1ccc(OC[C@H](O)CN[C@H]2C[C@H](c3cccc(Cl)c3)C2)cc1 [Compound 67, (R)-1-((trans-3-(3-chlorophenyl)cyclo-butyl)amino)-3-(4-(methylsulfonyl)phe-noxy)propan-2-ol] | 0.34 µM | 1.35 µM
C[C@@H]1C[C@H](COc2ccc(S(C)(=O)=O)cc2)CN1CC(O)c1cccc(C#N)c1 (single isomer, unassigned) [Compound 116, 3-[(1R or 1S)-1-hydroxy-2-[(2R,4S)-4-[(4-methanesulfonylphenoxy)methyl]-2-methylpyrrolidin-1-yl]ethyl] benzonitrile] | 0.374 µM | 0.076 µM
C[C@@H]1CN(CCc2cccc(Cl)c2)C[C@H]1COc1ccc(S(=O)(=O)CCCS(C)(=O)=O)cc1 (single isomer, unassigned) [Compound 177, (3S,4S or 3R,4R)-1-[2-(3-chlorophenyl)eth-yl]-3-{[4-(3-methanesulfonylpro-panesulfonyl)phe-noxy]methyl}-4-methylpyrrolidine] | 2.86 µM | 1.83 µM
C[C@@H]1C[C@H](COc2ccc(S(=O)(=O)CCCS(C)(=O)=O)cc2)CN1CCc1cccc(C#N)c1 [Compound 162, 3-{2-[(2R,4S)-4-{[4-(3-methanesulfonylpro-panesulfonyl)phe-noxy]methyl}-2-methylpyrrolidin-1-yl]ethyl}benzonitrile] | 0.233 µM | 0.0279 µM
CS(=O)(=O)c1ccc(OC[C@@H]2CN(CCc3cc(Cl)ccc3OC(F)F)CCN2)cc1 [Compound 192, (3S)-1-{2-[5-chloro-2-(difluoromethoxy)phenyl]eth-yl}-3-[(4-methanesulfonylphenoxy)methyl]piperazine] | 0.26 µM | 0.915 µM
CC1CC(COc2ccc(S(C)(=O)=O)cc2)CN1CCc1cc(Cl)cc(C#N)c1 (single isomer, unassigned) [Compound 202, rac-trans or cis-3-chloro-5-{2-[4-[(4-methanesulfonylphenoxy)methyl]-2-methylpyrrolidin-1-yl]ethyl}benzonitrile] | 0.86 µM | 0.089 µM
CC1CC(COc2ccc(S(C)(=O)=O)cc2)CN1CCc1cc(Cl)cc(C#N)c1 (single isomer, unassigned) [Compound 201, 3-chloro-5-(2-((2R,4S or 2S,4R or 2R,4R or 2S,4S)-2-methyl-4-((4-(methylsulfonyl)phenoxy)methyl)pyrrolidin-1-yl)ethyl)benzonitrile] | 0.62 µM | 1.68 µM
C[C@@H]1CN(CCc2cc(Cl)cc(C#N)c2)C[C@H]1COc1ccc(S(=O)(=O)CCO)cc1 [Compound 174, 3-chloro-5-{2-[(3S,4S)-3-{[4-(2-hydroxyethanesul-fonyl)phenoxy]meth-yl}-4-methylpyrrolidin-1-yl]ethyl}benzonitrile] | 0.157 µM | 0.0361 µM
C[C@@H]1C[C@H](COc2ccc(S(C)(=O)=O)cc2)CN1CC(O)c1cccc(Cl)c1 (single isomer, unassigned) [Compound 214, (1R) or (1S)-1-(3-chlorophenyl)-2-[(2R,4S)-4-[(4-methanesulfonylphenoxy)methyl]-2-methylpyrrolidin-1-yl]ethan-1-ol] | 0.428 µM | 0.679 µM
COCCS(=O)(=O)c1ccc(OC[C@H]2CN(CCc3cccc(Cl)c3)C[C@@H]2C)cc1 (single isomer, unassigned) [Compound 110, (3R,4R or 3S,4S)-1-[2-(3-chlorophenyl)ethyl]-3-{[4-(2-methoxyethane-sulfonyl)phenoxy]methyl}-4-methylpyrrolidine] | 0.0914 µM | 0.135 µM
COCCS(=O)(=O)c1ccc(OC[C@H]2CN(CCc3cccc(Cl)c3)C[C@@H]2C)cc1 (racemic) [Compound 109, rac-trans-1-[2-(3-chlorophenyl)ethyl]-3-{[4-(2-methoxyethane-sulfonyl)phenoxy]methyl}-4-methylpyrrolidine] | < 0.105 µM | 0.5 µM

Continued, in another order:

AC50 [2] | SMILES | EC50 [1]
0.079 µM | C[C@@H]1CN(CCc2cccc(Cl)c2)C[C@H]1COc1ccc(S(C)(=O)=O)cc1 (racemic) [Compound 52, rac-trans-1-(3-chlorophenethyl)-3-methyl-4-((4-(methylsulfonyl)phenoxy)methyl)pyrrolidine] | 0.124 µM
< 0.0961 µM | C[C@@H]1CN(CCc2cc(F)cc(Cl)c2)C[C@H]1COc1ccc(S(C)(=O)=O)cc1 [Compound 181, (3S,4S)-1-[2-(3-chloro-5-fluorophenyl)ethyl]-3-[(4-methanesulfonylphenoxy)methyl]-4-methylpyrrolidine] | 0.325 µM
2.22 µM | CC1(C)CC(COc2ccc(S(C)(=O)=O)cc2)CN1CCc1cccc(Cl)c1 (single isomer, unassigned) [Compound 44, (R) or (S)-1-(3-chlorophenethyl)-2,2-dimethyl-4-((4-(methylsulfonyl)phenoxy)methyl)pyrrolidine] | 2.43 µM
1.32 µM | CN(c1ccc(OC[C@@H]2CCN(CCc3cccc(Cl)c3)C2)cc1)S(C)(=O)=O [Compound 50, (R)-N-(4-((1-(3-chlorophenethyl)pyrrolidin-3-yl)methoxy)phenyl)-N-methylmethanesulfonamide] | 2.02 µM
> 12.5 µM | CC1CC(COc2ccc(S(C)(=O)=O)cc2)CN1CCc1cccc(C#N)c1 (single isomer, unassigned) [Compound 135, rac-cis or trans-3-{2-[4-[(4-methanesulfon-ylphenoxy)meth-yl]-2-methyl-pyrrolidin-1-yl]-ethyl}benzo-nitrile] | 5.73 µM
1.54 µM | CC(Cc1cccc(Cl)c1)NC[C@H](O)COc1ccc(N(C)S(C)(=O)=O)cc1 (single isomer, unassigned) [Compound 95, N-(4-((S)-3-(((S) or (R)-1-(3-chlorophenyl)propan-2-yl)amino)-2-hydroxypropoxy)phe-nyl)-N-methylmethanesulfon-amide] | 6.9 µM
0.338 µM | CC(Cc1cccc(Cl)c1)NC[C@@H](O)COc1ccc(N(C)S(C)(=O)=O)cc1 (single isomer, unassigned) [Compound 88, N-(4-((R)-3-(((S) or (R)-1-(3-chlorophenyl)propan-2-yl)amino)-2-hydroxypropoxy)phe-nyl)-N-methylmethanesulfon-amide] | 0.698 µM
2.17 µM | C[C@@H]1CN(CC(O)c2cc(C#N)cc(C#N)c2)C[C@H]1COc1ccc(S(C)(=O)=O)cc1 (single isomer, unassigned) [Compound 130, 5-[(1R or 1S)-1-hydroxy-2-[(3S,4S)-3-[(4-methanesulfonylphenoxy)methyl]-4-methylpyrrolidin-1-yl]ethyl]benzene-1,3-dicarbonitrile] | > 10 µM
< 0.253 µM | CN(c1ccc(OCC2CCCN(CCc3cccc(Cl)c3)C2)cc1)S(C)(=O)=O (centres unmarked) [Compound 7, N-(4-((1-(3-chlorophenethyl)piperidin-3-yl)methoxy)phenyl)-N-methylmethanesulfonamide] | 0.322 µM
< 0.236 µM | C[C@@]1(O)CN(CCc2cccc(Cl)c2)C[C@H]1COc1ccc(S(C)(=O)=O)cc1 (racemic) [Compound 205] | 1.59 µM
3.92 µM | COc1ccccc1CCNC[C@H](O)COc1ccc(N(C)S(C)(=O)=O)cc1 [Compound 98, (S)-N-(4-(2-hydroxy-3-((2-methoxyphenethyl)amino)propoxy)phe-nyl)-N-methylmethanesulfon-amide] | > 20 µM

— patent publication US20240316038A1, “APOL1 INHIBITORS AND METHODS OF USE” (Maze Therapeutics, Inc., priority 2021, published 2024)
